Experiments:
Format in all cases: biochemical
Fms = Fms (Homo sapiens, UniProt P07333); assay: Kinase activity assay, Fms; conditions: Table 1h; read-out: activity toward kinase Fms, IC50
Text: (§1) Assays for the activity of kinases, including, but not limited to, Fms, Kit, B-Raf, B-Raf V600E, c-Raf-1, and TrkA are known in the art, for example as described in US Patent Publication Number US20070032519 and U.S. patent application Ser. No. 11/473,347 (see also, PCT publication WO2007002433), the disclosures of which are hereby incorporated by reference with respect to such assays.

Kit = Kit (Homo sapiens, UniProt P10721); assay: Kinase activity assay, Kit; conditions: Table 1j; read-out: activity toward kinase Kit, IC50
Text: as §1

B-Raf V600E = B-Raf V600E (Homo sapiens, UniProt P15056, V600E); assay: Kinase activity assay, B-Raf V600E; conditions: Table 1c; read-out: activity toward kinase B-Raf V600E, IC50
Text: as §1

Kdr = Kdr (Homo sapiens, UniProt P35968); assay: Kinase activity assay, Kdr; conditions: Table 1i; read-out: activity toward kinase Kdr, IC50
Text: as §1

TrkA = TrkA (Homo sapiens, UniProt P04629); assay: Kinase activity assay, TrkA; conditions: Table 1m; read-out: activity toward kinase TrkA, IC50
Text: as §1

Measured: IC50

Sequence of Kit (P10721 26-976): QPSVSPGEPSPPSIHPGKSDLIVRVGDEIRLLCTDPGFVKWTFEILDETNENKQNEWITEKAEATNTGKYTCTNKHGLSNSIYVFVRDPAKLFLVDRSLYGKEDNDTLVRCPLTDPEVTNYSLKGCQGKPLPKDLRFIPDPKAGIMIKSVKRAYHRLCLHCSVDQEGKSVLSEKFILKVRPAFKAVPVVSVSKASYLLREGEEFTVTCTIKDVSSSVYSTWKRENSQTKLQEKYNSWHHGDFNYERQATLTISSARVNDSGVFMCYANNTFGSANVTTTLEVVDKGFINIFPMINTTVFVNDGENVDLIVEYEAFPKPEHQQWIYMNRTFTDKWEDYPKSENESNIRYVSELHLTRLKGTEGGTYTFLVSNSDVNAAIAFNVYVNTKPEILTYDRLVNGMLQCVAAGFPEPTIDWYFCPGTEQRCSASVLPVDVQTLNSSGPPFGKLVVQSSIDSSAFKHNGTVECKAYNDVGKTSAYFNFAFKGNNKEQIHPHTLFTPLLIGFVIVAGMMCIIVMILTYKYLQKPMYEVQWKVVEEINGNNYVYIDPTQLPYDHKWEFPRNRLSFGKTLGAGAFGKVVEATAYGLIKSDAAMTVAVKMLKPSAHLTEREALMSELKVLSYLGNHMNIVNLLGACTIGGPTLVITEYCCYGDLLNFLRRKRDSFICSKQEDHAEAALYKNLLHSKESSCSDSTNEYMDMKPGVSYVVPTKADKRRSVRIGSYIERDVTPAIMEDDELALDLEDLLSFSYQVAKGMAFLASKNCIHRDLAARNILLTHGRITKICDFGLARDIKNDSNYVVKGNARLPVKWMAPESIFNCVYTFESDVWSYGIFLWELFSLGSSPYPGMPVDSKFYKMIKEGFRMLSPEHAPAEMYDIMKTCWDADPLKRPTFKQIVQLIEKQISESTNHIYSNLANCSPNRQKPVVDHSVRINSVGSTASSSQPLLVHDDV
Sequence of Kdr (P35968 20-1356): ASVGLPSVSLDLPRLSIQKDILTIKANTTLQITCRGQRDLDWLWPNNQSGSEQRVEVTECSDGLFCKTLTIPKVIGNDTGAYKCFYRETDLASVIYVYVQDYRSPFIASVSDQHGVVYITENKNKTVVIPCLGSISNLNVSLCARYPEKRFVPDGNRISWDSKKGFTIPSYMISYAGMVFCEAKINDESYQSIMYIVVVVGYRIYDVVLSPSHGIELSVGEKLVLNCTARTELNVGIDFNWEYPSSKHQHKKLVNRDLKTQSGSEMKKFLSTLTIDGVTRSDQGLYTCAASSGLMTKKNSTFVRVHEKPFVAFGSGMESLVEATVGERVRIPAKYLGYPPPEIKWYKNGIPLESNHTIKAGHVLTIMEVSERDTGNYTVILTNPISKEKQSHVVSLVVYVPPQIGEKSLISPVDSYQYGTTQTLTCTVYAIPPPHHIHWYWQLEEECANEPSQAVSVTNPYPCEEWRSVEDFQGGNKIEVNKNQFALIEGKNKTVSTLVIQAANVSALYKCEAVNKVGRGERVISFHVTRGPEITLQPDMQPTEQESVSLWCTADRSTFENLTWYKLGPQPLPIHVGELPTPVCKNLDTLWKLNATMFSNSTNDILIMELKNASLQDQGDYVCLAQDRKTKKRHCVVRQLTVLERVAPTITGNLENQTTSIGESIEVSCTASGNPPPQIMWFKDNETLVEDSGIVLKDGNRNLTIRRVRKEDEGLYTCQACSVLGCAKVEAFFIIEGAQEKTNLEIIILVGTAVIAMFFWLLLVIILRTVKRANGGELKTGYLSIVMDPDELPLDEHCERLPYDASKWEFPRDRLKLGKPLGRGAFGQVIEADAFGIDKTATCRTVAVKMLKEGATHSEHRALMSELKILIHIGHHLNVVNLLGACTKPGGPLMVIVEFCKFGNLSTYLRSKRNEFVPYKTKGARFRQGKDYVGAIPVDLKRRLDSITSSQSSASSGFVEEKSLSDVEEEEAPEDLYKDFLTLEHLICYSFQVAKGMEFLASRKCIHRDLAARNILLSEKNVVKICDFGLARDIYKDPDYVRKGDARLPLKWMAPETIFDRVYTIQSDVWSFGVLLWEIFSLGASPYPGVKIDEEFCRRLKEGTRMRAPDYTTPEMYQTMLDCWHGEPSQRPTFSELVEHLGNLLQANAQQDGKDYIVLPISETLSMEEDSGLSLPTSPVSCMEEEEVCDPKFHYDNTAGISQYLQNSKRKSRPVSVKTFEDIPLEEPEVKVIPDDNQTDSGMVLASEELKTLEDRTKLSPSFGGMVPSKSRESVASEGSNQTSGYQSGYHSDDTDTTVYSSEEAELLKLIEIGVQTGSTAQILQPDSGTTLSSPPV
Sequence of TrkA (P04629 33-796): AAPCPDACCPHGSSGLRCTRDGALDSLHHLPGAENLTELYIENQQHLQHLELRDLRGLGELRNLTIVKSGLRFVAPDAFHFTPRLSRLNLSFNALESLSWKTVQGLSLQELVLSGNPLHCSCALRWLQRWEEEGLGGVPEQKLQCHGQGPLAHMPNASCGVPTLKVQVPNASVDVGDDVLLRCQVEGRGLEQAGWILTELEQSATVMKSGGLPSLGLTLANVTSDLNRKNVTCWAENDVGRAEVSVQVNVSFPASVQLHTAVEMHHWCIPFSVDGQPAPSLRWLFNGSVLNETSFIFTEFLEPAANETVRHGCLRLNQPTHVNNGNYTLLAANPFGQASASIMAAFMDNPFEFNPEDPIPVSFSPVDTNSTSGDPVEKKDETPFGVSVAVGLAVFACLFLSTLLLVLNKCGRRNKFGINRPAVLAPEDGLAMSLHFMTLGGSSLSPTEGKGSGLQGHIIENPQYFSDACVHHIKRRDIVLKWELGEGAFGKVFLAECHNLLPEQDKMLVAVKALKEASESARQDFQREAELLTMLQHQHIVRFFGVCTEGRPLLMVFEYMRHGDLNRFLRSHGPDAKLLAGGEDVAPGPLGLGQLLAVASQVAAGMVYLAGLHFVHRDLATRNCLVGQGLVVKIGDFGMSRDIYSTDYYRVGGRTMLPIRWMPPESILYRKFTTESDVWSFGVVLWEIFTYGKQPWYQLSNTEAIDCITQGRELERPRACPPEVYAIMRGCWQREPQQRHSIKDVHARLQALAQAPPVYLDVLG
Sequence of Fms (P07333 20-972): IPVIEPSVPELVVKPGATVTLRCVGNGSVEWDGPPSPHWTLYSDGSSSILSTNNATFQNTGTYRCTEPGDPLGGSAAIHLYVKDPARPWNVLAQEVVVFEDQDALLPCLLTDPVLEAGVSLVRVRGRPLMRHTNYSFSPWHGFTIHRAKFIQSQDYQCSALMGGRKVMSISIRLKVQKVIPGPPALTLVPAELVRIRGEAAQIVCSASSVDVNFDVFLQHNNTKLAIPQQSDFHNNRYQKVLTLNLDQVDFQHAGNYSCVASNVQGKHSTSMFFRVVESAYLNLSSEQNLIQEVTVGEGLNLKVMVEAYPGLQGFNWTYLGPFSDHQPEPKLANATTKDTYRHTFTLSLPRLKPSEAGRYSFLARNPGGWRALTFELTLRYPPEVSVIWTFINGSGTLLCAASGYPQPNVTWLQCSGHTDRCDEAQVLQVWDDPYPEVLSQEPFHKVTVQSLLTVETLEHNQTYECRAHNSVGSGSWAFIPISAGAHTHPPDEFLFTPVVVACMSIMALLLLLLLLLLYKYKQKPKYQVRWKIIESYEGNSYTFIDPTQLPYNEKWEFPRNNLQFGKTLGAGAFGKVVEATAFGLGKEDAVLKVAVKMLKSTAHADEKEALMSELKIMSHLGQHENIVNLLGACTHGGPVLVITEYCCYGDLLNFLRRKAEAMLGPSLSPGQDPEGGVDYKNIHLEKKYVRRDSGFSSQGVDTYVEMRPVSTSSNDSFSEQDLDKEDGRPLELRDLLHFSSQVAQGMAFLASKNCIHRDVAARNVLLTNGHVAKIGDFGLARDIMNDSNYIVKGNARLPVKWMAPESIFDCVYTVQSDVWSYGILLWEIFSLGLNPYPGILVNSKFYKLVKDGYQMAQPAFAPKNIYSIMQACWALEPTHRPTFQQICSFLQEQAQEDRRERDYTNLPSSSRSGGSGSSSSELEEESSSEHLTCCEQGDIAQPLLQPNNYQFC
Sequence of B-Raf V600E (P15056 whole entry V600E): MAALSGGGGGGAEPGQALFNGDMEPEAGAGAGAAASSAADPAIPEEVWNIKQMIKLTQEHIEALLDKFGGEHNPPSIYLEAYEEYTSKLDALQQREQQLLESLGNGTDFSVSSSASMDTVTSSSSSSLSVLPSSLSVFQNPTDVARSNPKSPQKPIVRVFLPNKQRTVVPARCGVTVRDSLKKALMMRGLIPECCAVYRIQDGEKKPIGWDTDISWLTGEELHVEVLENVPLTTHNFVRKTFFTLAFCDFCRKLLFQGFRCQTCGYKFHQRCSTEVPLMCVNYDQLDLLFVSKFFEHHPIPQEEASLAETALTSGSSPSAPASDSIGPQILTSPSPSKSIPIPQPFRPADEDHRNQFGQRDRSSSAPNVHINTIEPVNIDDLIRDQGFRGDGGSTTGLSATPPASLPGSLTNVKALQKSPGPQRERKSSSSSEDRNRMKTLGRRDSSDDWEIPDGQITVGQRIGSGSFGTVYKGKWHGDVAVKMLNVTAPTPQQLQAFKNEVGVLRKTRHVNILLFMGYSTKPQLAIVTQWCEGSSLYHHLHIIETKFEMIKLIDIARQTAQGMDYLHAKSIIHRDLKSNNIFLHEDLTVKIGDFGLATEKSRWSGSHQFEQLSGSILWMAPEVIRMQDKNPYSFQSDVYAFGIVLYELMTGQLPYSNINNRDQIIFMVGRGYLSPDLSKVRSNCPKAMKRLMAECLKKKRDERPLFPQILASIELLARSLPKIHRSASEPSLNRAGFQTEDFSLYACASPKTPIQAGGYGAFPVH

C[C@H](Nc1ccc(Cc2c[nH]c3ncncc23)c(F)n1)c1ccc(F)cc1 [P-0016, [(S)-1-(4-Fluoro-phenyl)-ethyl]-[6-fluoro-5-(7H-pyrrolo[2,3-d]pyrimidin-5-ylmethyl)-pyridin-2-yl]-amine]
not listed: TrkA
≤ 10 µM: all other assays above

COc1cc(CNc2ccc(Cc3c[nH]c4ncncc34)c(F)n2)c(F)cn1 [P-0021, (5-Fluoro-2-methoxy-pyridin-4-ylmethyl)-[6-fluoro-5-(7H-pyrrolo[2,3-d]pyrimidin-5-ylmethyl)-pyridin-2-yl]-amine]
≤ 10 µM: Fms | B-Raf V600E | Kdr

COc1ncc(F)cc1CNc1ncc(Cc2c[nH]c3ncncc23)cn1 [P-0022, (5-Fluoro-2-methoxy-pyridin-3-ylmethyl)-[5-(7H-pyrrolo[2,3-d]pyrimidin-5-ylmethyl)-pyrimidin-2-yl]-amine]
not listed: TrkA
≤ 10 µM: all other assays above

CCc1ccc(CNc2ncc(Cc3c[nH]c4ncncc34)cn2)nc1 [P-0033, (5-Ethyl-pyridin-2-ylmethyl)-[5-(7H-pyrrolo[2,3-d]pyrimidin-5-ylmethyl)-pyrimidin-2-yl]-amine]
≤ 10 µM: Fms | Kit | Kdr

c1cc(CNc2ncc(Cc3c[nH]c4ncncc34)cn2)cc(N2CCOCC2)n1 [P-0036, (2-Morpholin-4-yl-pyridin-4-ylmethyl)-[5-(7H-pyrrolo[2,3-d]pyrimidin-5-ylmethyl)-pyrimidin-2-yl]-amine]
≤ 10 µM: Fms | Kit | Kdr

COc1cc(CNc2ccc(Cc3c[nH]c4ncncc34)c(F)n2)cc(OC)c1OC [P-0037, [6-Fluoro-5-(7H-pyrrolo[2,3-d]pyrimidin-5-ylmethyl)-pyridin-2-yl]-(3,4,5-trimethoxy-benzyl)-amine]
≤ 10 µM: Fms | B-Raf V600E | Kdr

COc1ccc(OC)c(CNc2ccc(Cc3c[nH]c4ncncc34)c(F)n2)c1 [P-0038, (2,5-Dimethoxy-benzyl)-[6-fluoro-5-(7H-pyrrolo[2,3-d]pyrimidin-5-ylmethyl)-pyridin-2-yl]-amine]
≤ 10 µM: Fms | Kit | B-Raf V600E

COc1cncc(CNc2ccc(Cc3c[nH]c4ncncc34)c(F)n2)c1 [P-0040, [6-Fluoro-5-(7H-pyrrolo[2,3-d]pyrimidin-5-ylmethyl)-pyridin-2-yl]-(5-methoxy-pyridin-3-ylmethyl)-amine]
≤ 10 µM: Fms | B-Raf V600E

Fc1nc(NCc2ccc(Cl)nc2)ccc1Cc1c[nH]c2ncncc12 [P-0045, (6-Chloro-pyridin-3-ylmethyl)-[6-fluoro-5-(7H-pyrrolo[2,3-d]pyrimidin-5-ylmethyl)-pyridin-2-yl]-amine]
not listed: TrkA
≤ 10 µM: all other assays above

Fc1cncc(CNc2ccc(Cc3c[nH]c4ncncc34)c(F)n2)c1 [P-0050, (5-Fluoro-pyridin-3-ylmethyl)-[6-fluoro-5-(7H-pyrrolo[2,3-d]pyrimidin-5-ylmethyl)-pyridin-2-yl]-amine]
≤ 10 µM: Fms | B-Raf V600E

Fc1nc(NCc2ccc(Br)cn2)ccc1Cc1c[nH]c2ncncc12 [P-0053, (5-Bromo-pyridin-2-ylmethyl)-[6-fluoro-5-(7H-pyrrolo[2,3-d]pyrimidin-5-ylmethyl)-pyridin-2-yl]-amine]
not listed: TrkA
≤ 10 µM: all other assays above

CS(=O)(=O)c1cc(Cl)ccc1CNc1ccc(Cc2c[nH]c3ncncc23)c(F)n1 [P-0060, (4-Chloro-2-methanesulfonyl-benzyl)-[6-fluoro-5-(7H-pyrrolo[2,3-d]pyrimidin-5-ylmethyl)-pyridin-2-yl]-amine]
≤ 10 µM: Fms | B-Raf V600E | Kdr

Cc1ccc(CNc2ccc(Cc3c[nH]c4ncncc34)c(F)n2)nc1 [P-0062, [6-Fluoro-5-(7H-pyrrolo[2,3-d]pyrimidin-5-ylmethyl)-pyridin-2-yl]-(5-methyl-pyridin-2-ylmethyl)-amine]
not listed: TrkA
≤ 10 µM: all other assays above

COc1cc(CNc2ccc(Cc3c[nH]c4ncncc34)c(F)n2)cc(OC)c1 [P-0065, (3,5-Dimethoxy-benzyl)-[6-fluoro-5-(7H-pyrrolo[2,3-d]pyrimidin-5-ylmethyl)-pyridin-2-yl]-amine]
≤ 10 µM: Fms | TrkA | Kdr

Fc1nc(NCc2cccnc2C(F)(F)F)ccc1Cc1c[nH]c2ncncc12 [P-0071, [6-Fluoro-5-(7H-pyrrolo[2,3-d]pyrimidin-5-ylmethyl)-pyridin-2-yl]-(2-trifluoromethyl-pyridin-3-ylmethyl)-amine]
≤ 10 µM: Fms | TrkA | Kdr

Fc1cnc(Cl)cc1CNc1ccc(Cc2c[nH]c3ncncc23)c(F)n1 [P-0072, (2-Chloro-5-fluoro-pyridin-4-ylmethyl)-[6-fluoro-5-(7H-pyrrolo[2,3-d]pyrimidin-5-ylmethyl)-pyridin-2-yl]-amine]
≤ 10 µM: Fms | B-Raf V600E | Kdr

N#Cc1cc(CNc2ccc(Cc3c[nH]c4ncncc34)c(F)n2)ccn1 [P-0073, 4-{[6-Fluoro-5-(7H-pyrrolo[2,3-d]pyrimidin-5-ylmethyl)-pyridin-2-ylamino]-methyl}-pyridine-2-carbonitrile]
≤ 10 µM: Fms | B-Raf V600E | Kdr

Fc1nc(NCc2ccnc(C(F)(F)F)c2)ccc1Cc1c[nH]c2ncncc12 [P-0075, [6-Fluoro-5-(7H-pyrrolo[2,3-d]pyrimidin-5-ylmethyl)-pyridin-2-yl]-(2-trifluoromethyl-pyridin-4-ylmethyl)-amine]
≤ 10 µM: Fms | TrkA | Kdr

Fc1nc(NCc2ccnc(Cl)c2)ccc1Cc1c[nH]c2ncncc12 [P-0076, (2-Chloro-pyridin-4-ylmethyl)-[6-fluoro-5-(7H-pyrrolo[2,3-d]pyrimidin-5-ylmethyl)-pyridin-2-yl]-amine]
≤ 10 µM: Fms | B-Raf V600E | Kdr

Fc1ncc(Cl)cc1CNc1ccc(Cc2c[nH]c3ncncc23)c(F)n1 [P-0077, (5-Chloro-2-fluoro-pyridin-3-ylmethyl)-[6-fluoro-5-(7H-pyrrolo[2,3-d]pyrimidin-5-ylmethyl)-pyridin-2-yl]-amine]
≤ 10 µM: Fms | B-Raf V600E

CCc1ncc(CNc2ccc(Cc3c[nH]c4ncncc34)c(F)n2)cn1 [P-0078, (2-Ethyl-pyrimidin-5-ylmethyl)-[6-fluoro-5-(7H-pyrrolo[2,3-d]pyrimidin-5-ylmethyl)-pyridin-2-yl]-amine]
≤ 10 µM: Fms | B-Raf V600E | Kdr

CCCCc1ncc(CNc2ccc(Cc3c[nH]c4ncncc34)c(F)n2)cn1 [P-0081, (2-Butyl-pyrimidin-5-ylmethyl)-[6-fluoro-5-(7H-pyrrolo[2,3-d]pyrimidin-5-ylmethyl)-pyridin-2-yl]-amine]
≤ 10 µM: Fms | B-Raf V600E | Kdr

COc1cc(F)cc(CNc2ccc(Cc3c[nH]c4ncncc34)c(F)n2)c1 [P-0083, (3-Fluoro-5-methoxy-benzyl)-[6-fluoro-5-(7H-pyrrolo[2,3-d]pyrimidin-5-ylmethyl)-pyridin-2-yl]-amine]
≤ 10 µM: Fms | Kit | Kdr

CCOc1ncccc1CNc1ncc(Cc2c[nH]c3ncncc23)cn1 [P-0085, (2-Ethoxy-pyridin-3-ylmethyl)-[5-(7H-pyrrolo[2,3-d]pyrimidin-5-ylmethyl)-pyrimidin-2-yl]-amine]
≤ 10 µM: Fms | Kit | Kdr

c1cc(CNc2ncc(Cc3c[nH]c4ncncc34)cn2)cc(OC2CCCC2)n1 [P-0087, (2-Cyclopentyloxy-pyridin-4-ylmethyl)-[5-(7H-pyrrolo[2,3-d]pyrimidin-5-ylmethyl)-pyrimidin-2-yl]-amine]
≤ 10 µM: Fms | Kit | Kdr

COc1ncc(F)cc1CNc1ccc(Cc2c[nH]c3ncnc(O)c23)cn1 [P-0099, 5-{6-[(5-Fluoro-2-methoxy-pyridin-3-ylmethyl)-amino]-pyridin-3-ylmethyl}-7H-pyrrolo[2,3-d]pyrimidin-4-ol]
≤ 10 µM: Fms | Kit | TrkA
